Test results reported in publication PMC6199744, “Development of Chemical Proteomics for the Folateome and Analysis of the Kinetoplastid Folateome” (ACS Infectious Diseases, 2018).
Where two headings read alike, the source gives them in different places.

Key:
Type in all cases: binding
[1] = target: T1, HeLa cell extract proteins (Homo sapiens, UniProt P17858)
T1 construct: endogenous in cells; host or cells: HeLa cell extract
T1 sequence (P17858 1-780): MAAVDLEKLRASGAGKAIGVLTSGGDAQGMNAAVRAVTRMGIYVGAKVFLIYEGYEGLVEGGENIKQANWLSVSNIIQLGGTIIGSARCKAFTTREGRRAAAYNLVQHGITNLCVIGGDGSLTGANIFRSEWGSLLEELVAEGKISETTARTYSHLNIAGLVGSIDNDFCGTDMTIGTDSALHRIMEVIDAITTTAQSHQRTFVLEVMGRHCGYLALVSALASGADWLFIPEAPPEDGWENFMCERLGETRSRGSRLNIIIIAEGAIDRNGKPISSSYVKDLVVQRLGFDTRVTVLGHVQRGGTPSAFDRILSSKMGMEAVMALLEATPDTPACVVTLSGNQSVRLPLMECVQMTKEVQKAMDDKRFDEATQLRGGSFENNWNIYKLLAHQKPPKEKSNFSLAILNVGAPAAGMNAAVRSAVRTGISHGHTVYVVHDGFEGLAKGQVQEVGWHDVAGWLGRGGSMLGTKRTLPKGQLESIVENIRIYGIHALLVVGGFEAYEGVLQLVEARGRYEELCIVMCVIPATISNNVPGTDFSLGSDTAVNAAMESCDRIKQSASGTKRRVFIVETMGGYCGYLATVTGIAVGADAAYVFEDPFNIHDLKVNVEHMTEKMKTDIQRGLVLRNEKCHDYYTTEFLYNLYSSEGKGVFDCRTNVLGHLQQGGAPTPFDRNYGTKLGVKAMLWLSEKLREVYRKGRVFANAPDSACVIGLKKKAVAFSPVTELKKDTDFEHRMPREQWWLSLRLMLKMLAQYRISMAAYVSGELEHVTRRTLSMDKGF

[2] = target: T2, HeLa cell extract proteins (Homo sapiens, UniProt P38606)
T2 construct: endogenous in cells; host or cells: HeLa cell extract
T2 sequence (P38606 whole entry): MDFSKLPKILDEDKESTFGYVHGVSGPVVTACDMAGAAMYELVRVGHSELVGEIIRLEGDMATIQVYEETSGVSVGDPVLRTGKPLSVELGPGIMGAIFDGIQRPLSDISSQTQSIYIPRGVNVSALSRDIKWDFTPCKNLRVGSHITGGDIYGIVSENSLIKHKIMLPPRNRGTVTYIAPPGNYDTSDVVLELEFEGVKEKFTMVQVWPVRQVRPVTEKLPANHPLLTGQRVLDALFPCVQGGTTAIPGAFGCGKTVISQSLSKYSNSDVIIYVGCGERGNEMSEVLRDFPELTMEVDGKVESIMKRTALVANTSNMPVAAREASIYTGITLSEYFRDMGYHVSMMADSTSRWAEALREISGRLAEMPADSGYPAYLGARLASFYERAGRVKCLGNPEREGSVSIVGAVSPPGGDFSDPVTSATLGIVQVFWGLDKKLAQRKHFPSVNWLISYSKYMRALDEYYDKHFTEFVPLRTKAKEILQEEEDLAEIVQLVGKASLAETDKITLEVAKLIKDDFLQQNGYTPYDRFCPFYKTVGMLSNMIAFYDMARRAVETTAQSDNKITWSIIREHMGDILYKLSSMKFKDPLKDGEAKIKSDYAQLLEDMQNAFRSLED

[3] = target: T3, HeLa cell extract proteins (Homo sapiens, UniProt P61619)
T3 construct: endogenous in cells; host or cells: HeLa cell extract
T3 sequence (P61619 whole entry): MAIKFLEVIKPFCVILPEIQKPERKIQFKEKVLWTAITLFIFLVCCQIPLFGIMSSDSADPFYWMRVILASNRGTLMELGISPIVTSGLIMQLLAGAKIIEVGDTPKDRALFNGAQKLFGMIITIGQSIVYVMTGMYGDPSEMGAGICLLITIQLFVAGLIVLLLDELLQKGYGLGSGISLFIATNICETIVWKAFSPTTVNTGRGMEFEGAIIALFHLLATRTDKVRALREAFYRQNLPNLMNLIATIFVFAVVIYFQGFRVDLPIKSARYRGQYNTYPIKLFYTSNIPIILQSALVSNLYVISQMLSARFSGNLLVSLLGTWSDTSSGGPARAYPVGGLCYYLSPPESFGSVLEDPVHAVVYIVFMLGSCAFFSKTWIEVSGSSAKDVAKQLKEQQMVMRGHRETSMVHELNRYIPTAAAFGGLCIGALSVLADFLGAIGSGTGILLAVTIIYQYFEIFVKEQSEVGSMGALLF

[4] = target: T4, HeLa cell extract proteins (Homo sapiens, UniProt O95382)
T4 construct: endogenous in cells; host or cells: HeLa cell extract
T4 sequence (O95382 1-1288): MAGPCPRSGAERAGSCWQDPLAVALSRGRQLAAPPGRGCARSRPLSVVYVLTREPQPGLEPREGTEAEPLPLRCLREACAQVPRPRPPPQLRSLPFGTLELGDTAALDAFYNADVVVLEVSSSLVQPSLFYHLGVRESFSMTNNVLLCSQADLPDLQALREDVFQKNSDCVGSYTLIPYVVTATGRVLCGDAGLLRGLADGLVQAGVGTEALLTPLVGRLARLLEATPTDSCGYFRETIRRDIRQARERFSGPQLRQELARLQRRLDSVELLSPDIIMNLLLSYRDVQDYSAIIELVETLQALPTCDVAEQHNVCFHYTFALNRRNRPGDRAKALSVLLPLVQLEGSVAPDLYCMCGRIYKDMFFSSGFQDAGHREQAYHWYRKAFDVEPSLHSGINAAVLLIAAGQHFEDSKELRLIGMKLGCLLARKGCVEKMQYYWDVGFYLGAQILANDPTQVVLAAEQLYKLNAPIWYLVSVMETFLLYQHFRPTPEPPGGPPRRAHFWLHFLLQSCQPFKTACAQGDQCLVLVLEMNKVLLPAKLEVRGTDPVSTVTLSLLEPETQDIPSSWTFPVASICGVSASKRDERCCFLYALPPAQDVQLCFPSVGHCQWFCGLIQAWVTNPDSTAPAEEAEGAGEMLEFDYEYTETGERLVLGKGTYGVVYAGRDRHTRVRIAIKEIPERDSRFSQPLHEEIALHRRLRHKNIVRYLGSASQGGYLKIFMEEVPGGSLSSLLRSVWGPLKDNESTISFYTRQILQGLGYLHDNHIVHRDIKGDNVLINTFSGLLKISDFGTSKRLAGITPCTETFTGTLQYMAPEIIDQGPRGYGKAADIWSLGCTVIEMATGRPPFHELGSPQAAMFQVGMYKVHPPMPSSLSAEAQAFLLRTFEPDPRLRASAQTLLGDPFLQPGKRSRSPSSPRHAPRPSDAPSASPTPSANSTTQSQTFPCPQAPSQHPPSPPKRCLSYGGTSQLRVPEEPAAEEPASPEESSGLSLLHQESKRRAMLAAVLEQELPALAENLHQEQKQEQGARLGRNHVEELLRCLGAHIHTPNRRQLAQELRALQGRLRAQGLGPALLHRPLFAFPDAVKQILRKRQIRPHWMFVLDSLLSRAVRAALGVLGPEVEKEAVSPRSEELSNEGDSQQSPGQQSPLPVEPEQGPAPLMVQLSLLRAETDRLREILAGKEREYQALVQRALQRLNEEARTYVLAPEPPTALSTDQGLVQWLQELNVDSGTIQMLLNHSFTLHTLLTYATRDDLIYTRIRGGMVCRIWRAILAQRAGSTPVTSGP

[5] = target: T5, HeLa cell extract proteins (Homo sapiens, UniProt P49748)
T5 construct: endogenous in cells; host or cells: HeLa cell extract
T5 sequence (P49748 41-655): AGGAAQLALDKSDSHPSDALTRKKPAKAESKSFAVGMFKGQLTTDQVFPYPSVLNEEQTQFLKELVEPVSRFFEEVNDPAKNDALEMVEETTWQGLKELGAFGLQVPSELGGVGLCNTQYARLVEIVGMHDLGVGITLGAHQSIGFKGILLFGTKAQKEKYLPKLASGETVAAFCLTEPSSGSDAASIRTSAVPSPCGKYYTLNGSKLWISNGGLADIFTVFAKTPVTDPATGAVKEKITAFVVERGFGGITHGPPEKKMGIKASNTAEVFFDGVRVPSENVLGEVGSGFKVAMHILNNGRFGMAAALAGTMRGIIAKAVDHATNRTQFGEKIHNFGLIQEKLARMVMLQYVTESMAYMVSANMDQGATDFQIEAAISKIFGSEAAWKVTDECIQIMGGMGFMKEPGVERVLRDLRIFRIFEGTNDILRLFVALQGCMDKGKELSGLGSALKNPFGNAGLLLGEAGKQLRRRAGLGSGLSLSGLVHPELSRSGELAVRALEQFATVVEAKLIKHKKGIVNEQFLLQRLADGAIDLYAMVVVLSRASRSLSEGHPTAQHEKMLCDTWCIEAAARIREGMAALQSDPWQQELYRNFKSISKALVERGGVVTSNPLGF

Structure (SMILES): CCCCCCOc1cccc(Cc2cnc(N)nc2N)c1 [compound 2]
- fold changes relative to vehicle control ([1]; captured protein PFKL, HeLa): 0.96
- fold changes relative to vehicle control ([2]; protein ATP6V1A, HeLa): 1.5
- fold changes relative to vehicle control ([3]; HeLa, protein SEC61A1): 1.01
- fold changes relative to vehicle control ([4]; HeLa, protein MAP3K6): 0.97
- fold changes relative to vehicle control ([5]; protein ACADVL, HeLa): 1.29

Structure (SMILES): NCCOCCOCC(=O)Nc1nc2ncc(CNc3ccc(C(=O)NC(CCC(=O)O)C(=O)O)cc3)nc2c(=O)[nH]1 (centres unmarked) [compound 6]
- fold changes relative to vehicle control ([1]; HeLa, protein PFKL): 0.98
- fold changes relative to vehicle control ([2]; HeLa, protein ATP6V1A): 1.04
- fold changes relative to vehicle control ([3]; HeLa, protein SEC61A1): 1.03
- fold changes relative to vehicle control ([4]; HeLa, protein MAP3K6): 1.19
- fold changes relative to vehicle control ([5]; HeLa, protein ACADVL): 1.22

Structure (SMILES): CCCCCCOc1ccc(Cc2cnc(N)nc2N)cc1 [compound 1]
- fold changes relative to vehicle control ([1]; captured protein PFKL, HeLa): 0.92
- fold changes relative to vehicle control ([2]; protein ATP6V1A, HeLa): 1.04
- fold changes relative to vehicle control ([3]; HeLa, protein SEC61A1): 1.02
- fold changes relative to vehicle control ([4]; HeLa, protein MAP3K6): 0.99
- fold changes relative to vehicle control ([5]; protein ACADVL, HeLa): 0.96

Structure (SMILES): Nc1nc2c(c(=O)[nH]1)N(C=O)C(CNc1ccc(C(=O)N[C@@H](CCC(=O)O)C(=O)O)cc1)CN2 (some centres unmarked) [LEU, leucovorin]
- fold changes relative to vehicle control ([1]; HeLa, protein PFKL): 0.96
- fold changes relative to vehicle control ([2]; HeLa, protein ATP6V1A): 1
- fold changes relative to vehicle control ([3]; HeLa, protein SEC61A1): 0.99
- fold changes relative to vehicle control ([4]; HeLa, protein MAP3K6): 0.99
- fold changes relative to vehicle control ([5]; HeLa, protein ACADVL): 0.98

Structure (SMILES): NCCCNc1ccc(C(=O)NC(CCC(=O)O)C(=O)O)cc1 (centres unmarked) [compound 7]
- fold changes relative to vehicle control ([1]; HeLa, protein PFKL): 1.07
- fold changes relative to vehicle control ([2]; HeLa, protein ATP6V1A): 0.93
- fold changes relative to vehicle control ([3]; HeLa, protein SEC61A1): 1.06
- fold changes relative to vehicle control ([4]; HeLa, protein MAP3K6): 1.16
- fold changes relative to vehicle control ([5]; HeLa, protein ACADVL): 0.97

Structure (SMILES): Nc1nc2[nH]cc(CCc3ccc(C(=O)N[C@@H](CCC(=O)O)C(=O)O)cc3)c2c(=O)[nH]1 [PTX, pemetrexed]
- fold changes relative to vehicle control [1]: 0.89
- fold changes relative to vehicle control [2]: 0.9
- fold changes relative to vehicle control [3]: 0.98
- fold changes relative to vehicle control [4]: 1.16
- fold changes relative to vehicle control [5]: 1.03

Structure (SMILES): Nc1nc2cccc(-c3ccccc3)c2n1Cc1ccc(Cl)c(Cl)c1 [compound 3]
- fold changes relative to vehicle control ([1]; captured protein PFKL, HeLa): 1.07
- fold changes relative to vehicle control ([2]; protein ATP6V1A, HeLa): 0.83
- fold changes relative to vehicle control ([3]; HeLa, protein SEC61A1): 1
- fold changes relative to vehicle control ([4]; HeLa, protein MAP3K6): 0.97
- fold changes relative to vehicle control ([5]; protein ACADVL, HeLa): 0.91
